Laboratory results as given in US20070276134A1, “COMPOSITIONS AND METHODS FOR COMPLEXES OF NUCLEIC ACIDS AND ORGANIC CATIONS” (NASTECH PHARMACEUTICAL COMPANY INC., priority 2006, published 2007).

Experiment: LogP determination in n-octanol and water, classical equilibrium partitioning method
Protocol: A LogP determination was performed on the salts in n-octanol and water using the classical equilibrium partitioning method. This was performed to evaluate the hydrophobic physical properties of the peptide and determine if there was a difference in the apparent hydrophobicity of the salt form of the siRNA versus the control of the sodium salt of siRNA.

| Substance | partitioning as a salt versus partitioning as the sodium salt siRNA complex of DOTAP (1-octanol) | LogP (n-octanol and water, salt form of siRNA) |
| --- | --- | --- |
| DOTAP | distinctly different | – |
| Sodium | – | −1.98 |
